In US11752149B2, “Muscarinic acetylcholine M1 receptor antagonists” (Pipeline Therapeutics, Inc., priority 2019, dated 2023):
Read-outs that look alike come from different tables or passages of the source.

Legend:
Assay type in all cases: cell-based
human M4 receptor = human M4 receptor (Homo sapiens (Human), UniProt P08173); assay: Aequorin calcium flux assay, reversal of EC80 acetylcholine response, M4
Procedure: (§1) CHO-K1 cells stably expressing human M1 receptor with aequorin (Perkin Elmer) were grown in F12 media (Gibco) containing 10% FBS (ATCC), 0.4 mg/mL geneticin (Sigma-Aldrich) and 0.25 mg/mL Zeocin (Invitrogen). Cells were grown as per the manufacturer's protocol. For compound testing, cells were grown to confluency and detached gently with Accutase (Sigma-Aldrich) followed by centrifugation for 5 min at 150×g. Cells were then re-suspended in assay buffer (i.e. DMEM/F-12 HEPES without phenol red (Invitrogen) with 0.1% BSA (Sigma-Aldrich)) at a density of 5×10^6 cells/ml. Under sterile conditions, 5 μM coelenterazine (Invitrogen) was added to the cells, mixed, then incubated at room temperature protected from light, with gentle agitation, for 4 h.
(§2) Primary compound plates were prepared in 100% DMSO in opaque 96-well plates (VWR) and serially diluted in half log increments. Secondary compound plates were prepared at 3× concentration in assay buffer. Compounds were added to white, clear bottom tissue culture treated 96-well plates (Fisher Scientific). Coelenterazine-loaded cells were then added at 5×10^5 cells/well.
(§3) Compounds and cells were incubated at room temperature for 30 min in the dark. Acetylcholine at the EC80 concentration was added and calcium flux measured using a FlexStation 3 (Molecular Devices). Sigmoidal dose-response curves were generated by measuring luminescence over 40 sec and calculating the area under the curve. Dose response curves and IC50 values were generated using Prism (GraphPad). Compounds were tested at a final concentration range of 100 pM to 10 μM in 0.1% DMSO.
(§4) CHO-K1 cells stably expressing human M2, M3 and M4 receptors, respectively, with aequorin (Perkin Elmer) were used to assess a test compound's ability to dose-dependently reverse the EC80 acetylcholine response. The IC50 of the compounds was calculated from the dose response curve.

human M3 receptor = human M3 receptor (Homo sapiens (Human), UniProt P20309); assay: Aequorin calcium flux assay, reversal of EC80 acetylcholine response, M3
Chain of human M3 receptor (P20309 whole entry, looked up): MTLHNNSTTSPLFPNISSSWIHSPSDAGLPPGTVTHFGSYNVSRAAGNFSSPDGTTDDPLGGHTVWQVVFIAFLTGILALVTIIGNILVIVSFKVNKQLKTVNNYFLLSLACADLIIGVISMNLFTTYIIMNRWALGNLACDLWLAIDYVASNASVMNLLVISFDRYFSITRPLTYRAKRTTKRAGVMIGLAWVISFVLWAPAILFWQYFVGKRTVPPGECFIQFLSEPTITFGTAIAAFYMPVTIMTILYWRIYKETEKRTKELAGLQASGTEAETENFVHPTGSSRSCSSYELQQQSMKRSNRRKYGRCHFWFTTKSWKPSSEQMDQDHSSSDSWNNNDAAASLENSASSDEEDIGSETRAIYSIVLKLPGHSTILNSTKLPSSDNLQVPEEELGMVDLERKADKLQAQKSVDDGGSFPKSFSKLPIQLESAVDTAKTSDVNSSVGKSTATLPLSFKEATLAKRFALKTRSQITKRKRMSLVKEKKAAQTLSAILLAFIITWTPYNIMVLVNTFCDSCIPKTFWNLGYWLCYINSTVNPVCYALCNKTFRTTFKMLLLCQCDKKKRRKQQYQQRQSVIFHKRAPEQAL
Procedure: as §1, §2, §3, §4

human M1 receptor = human M1 receptor (Homo sapiens (Human), UniProt P11229); assay: In vitro functional assay of muscarinic acetylcholine receptor activity, aequorin calcium flux, reversal of EC80 acetylcholine
Chain of human M1 receptor (P11229 whole entry): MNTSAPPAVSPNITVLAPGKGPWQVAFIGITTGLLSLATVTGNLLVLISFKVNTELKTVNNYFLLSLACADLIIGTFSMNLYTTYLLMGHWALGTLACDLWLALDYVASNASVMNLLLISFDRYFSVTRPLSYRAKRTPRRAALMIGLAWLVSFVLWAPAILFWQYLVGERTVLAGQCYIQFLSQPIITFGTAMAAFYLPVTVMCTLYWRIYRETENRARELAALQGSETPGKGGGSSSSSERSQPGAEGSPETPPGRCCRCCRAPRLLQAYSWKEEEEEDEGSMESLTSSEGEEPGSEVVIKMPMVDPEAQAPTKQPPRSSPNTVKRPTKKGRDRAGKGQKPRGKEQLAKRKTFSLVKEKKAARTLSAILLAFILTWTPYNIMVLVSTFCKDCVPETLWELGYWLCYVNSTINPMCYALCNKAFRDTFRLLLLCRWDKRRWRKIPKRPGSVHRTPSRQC
Procedure: as §1, §2, §3

human M2 receptor = human M2 receptor (Homo sapiens (Human), UniProt P08172); assay: Aequorin calcium flux assay, reversal of EC80 acetylcholine response, M2
Chain of human M2 receptor (P08172 whole entry): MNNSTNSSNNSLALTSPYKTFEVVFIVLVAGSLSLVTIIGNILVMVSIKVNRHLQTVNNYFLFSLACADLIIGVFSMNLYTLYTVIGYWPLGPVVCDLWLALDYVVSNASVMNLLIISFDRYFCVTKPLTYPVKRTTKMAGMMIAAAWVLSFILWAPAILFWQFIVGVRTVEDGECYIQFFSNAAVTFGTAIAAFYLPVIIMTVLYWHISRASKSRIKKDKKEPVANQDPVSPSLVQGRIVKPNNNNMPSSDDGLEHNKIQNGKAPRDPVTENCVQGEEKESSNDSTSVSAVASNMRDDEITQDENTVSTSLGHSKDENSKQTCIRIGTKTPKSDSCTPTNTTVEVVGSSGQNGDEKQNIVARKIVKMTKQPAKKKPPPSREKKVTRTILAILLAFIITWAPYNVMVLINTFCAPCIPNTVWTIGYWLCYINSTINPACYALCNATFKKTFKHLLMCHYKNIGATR
Procedure: as §1, §2, §3, §4

[1] = CHO-K1 cells expressing human M1 receptor with aequorin, acetylcholine at EC80, read-out: M1 IC50
[2] = CHO-K1 cells expressing human M2 receptor with aequorin, acetylcholine at EC80, read-out: M2 IC50

Chain of human M4 receptor (P08173 whole entry): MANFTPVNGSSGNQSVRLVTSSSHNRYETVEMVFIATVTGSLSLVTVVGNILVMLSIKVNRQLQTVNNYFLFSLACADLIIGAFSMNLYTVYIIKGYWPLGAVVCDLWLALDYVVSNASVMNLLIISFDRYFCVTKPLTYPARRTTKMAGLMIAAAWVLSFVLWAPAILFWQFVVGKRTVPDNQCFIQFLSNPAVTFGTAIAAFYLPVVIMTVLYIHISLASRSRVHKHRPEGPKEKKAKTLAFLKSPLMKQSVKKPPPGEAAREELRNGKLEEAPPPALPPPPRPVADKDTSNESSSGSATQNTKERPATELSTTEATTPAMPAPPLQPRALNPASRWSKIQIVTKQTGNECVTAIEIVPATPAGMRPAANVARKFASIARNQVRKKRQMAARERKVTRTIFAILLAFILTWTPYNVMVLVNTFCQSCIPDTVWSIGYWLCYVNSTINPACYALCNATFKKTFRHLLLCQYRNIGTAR

Compound	IC50 (human M4 receptor; CHO-K1 cells expressing human M4 receptor with aequorin, acetylcholine at EC80, read-out: M4 IC50) [nM]	IC50 (human M3 receptor; CHO-K1 cells expressing human M3 receptor with aequorin, acetylcholine at EC80, read-out: M3 IC50) [nM]	IC50 (human M1 receptor; [1]) [nM]	IC50 (human M2 receptor) [µM]	IC50 (human M4 receptor) [nM]	IC50 (human M3 receptor) [nM]	IC50 (human M1 receptor) [nM]	IC50 (human M2 receptor; [2]) [µM]
N#Cc1ccc(N2C3CCC2CN(C(=O)CCS(=O)(=O)c2ccccc2[C@H]2CC2(F)F)C3)nc1 (single isomer, unassigned) [Example 35]	10 to 100	100 to 1000	< 10	0.01 to 0.1	–	–	–	–
COc1cccc(S(=O)(=O)CCC(=O)N2CC3CCC(C2)N3c2ccc(C#N)cn2)c1 [Example 2, 6-(3-(3-((3-methoxyphenyl)sulfonyl)propanoyl)-3,8-diazabicyclo[3.2.1]octan-8-yl)nicotinonitrile]	–	–	–	–	100 to 1000	100 to 1000	10 to 100	> 10
COc1cc(S(=O)(=O)CCC(=O)N2CC3CCC(C2)N3c2ccc(C#N)cn2)ccc1F [Example 3, 6-(3-(3-((4-fluoro-3-methoxyphenyl)sulfonyl)propanoyl)-3,8-diazabicyclo[3.2.1]octan-8-yl)nicotinonitrile]	–	–	< 10	–	100 to 1000	100 to 1000	–	> 10
Cc1c(F)cccc1S(=O)(=O)CCC(=O)N1CC2CCC(C1)N2c1ccc(C#N)cn1 [Example 24, 6-{3-[3-(3-fluoro-2-methylbenzenesulfonyl)propanoyl]-3,8-diazabicyclo [3.2.1]octan-8-yl}pyridine-3-carbonitrile]	–	–	< 10	–	100 to 1000	100 to 1000	–	1 to 10
